Measurements taken from US12054509B2, “Antimicrobial compounds, compositions, and uses thereof” (Lakewood Amedex, Inc., priority 2017, dated 2024).

What was measured:
Escherichia coli = experiment: MIC at pH 3.5 (CLSI, Mueller-Hinton broth); assay type: cell-based; details: 5 isolates
Method: (§1) Bacterial strains evaluated in this study include Escherichia coli, Klebsiella spp, Serratia marcescens, Proteus mirabilis/vulgaris, Citrobacter spp, Providencia spp, Morganella morganii, Pseudomonas aeruginosa, Staphylococcus aureus (MRSA only), and Enterococcus faecalis. Nu-8 test solutions are adjusted to pH 3.5 with citric acid, and MIC is evaluated per the CLSI methods in Mueller-Hinton broth supplemented accordingly to facilitate growth of specific strains.

[1] = test system: Proteus mirabilis/vulgaris; experiment: MIC at pH 3.5 (CLSI, Mueller-Hinton broth); assay type: cell-based; details: 5 isolates
Method: as §1

[2] = test system: Staphylococcus aureus (MRSA); experiment: MIC at pH 3.5 (CLSI, Mueller-Hinton broth); assay type: cell-based; details: 20 isolates
Method: as §1

E. coli = experiment: MIC in lysogeny broth (LB) at pH 4; assay type: cell-based; details: Escherichia coli
Method: (§2) The MICs are also determined using lysogeny broth (LB) at pH 4 as the growth medium. Under these conditions, Nu-8 is active against E. coli and P. aeruginosa with MICs of 54 and 27 mg/mL, respectively.

P. aeruginosa = experiment: MIC in lysogeny broth (LB) at pH 4; assay type: cell-based; details: Pseudomonas aeruginosa
Method: as §2

[3] = test system: Escherichia coli (strain CFT073, TPPS 1041); experiment: Urinary tract infection model in BALB/c mice, confirmatory efficacy (Example 11); assay type: in vivo; details: for bacterial burden (bladder): 20 minutes post-treatment
Source text: Female BALB/c mice (20-22 g) ordered from Envigo are acclimated to housing conditions and handled in accordance with Animal Use Protocol (AUP) number TP-08. Animals are fed irradiated Teklad Global 29 18 Rodent Diet and water ad libitum. Mice are housed 6/cage in static cages with irradiated ⅛″ Teklad corn cobbedding 7902 inside bioBubble® clean rooms that provide H.E.P.A filtered air into the bubble environment at 100 complete air changes per hour. The environment is controlled to a temperature range of 74°±4° F. and a humidity range of 30-70%. All procedures carried out in this experiment are conducted in compliance with the laws, regulations, and guidelines of the National Institutes of Health and with the approval of the TransPharm Preclinical Solutions Animal Care and Use Committee.
A clinical isolate of Escherichia coli (strain CFT073, TPPS 1041) are procured from the University of Michigan.
The organism is grown overnight at 37° C. in ambient atmosphere on trypticase soy agar plates supplemented with 5% sheep blood cells. The culture is aseptically swabbed and transferred to tubes of trypticase soy broth. The optical density is determined at 600 nm. The culture is diluted to provide an inoculum of approximately 7.5 login CFU per mouse in a volume of 30 μL. Instillation of the bacterial challenge constituted time 0 hour for the study. Inoculum counts are estimated before inoculation by optical density and confirmed after inoculation by dilution and back counts.
One hour prior to bacterial challenge, water is removed from animal cages. On Day 0 at 0 hours, mice are anesthetized using isoflurane and urine is expressed from the bladder by applying gentle pressure to the abdomen with the thumb. Mice are infected with bacteria via transurethral injection in a volume of 30 μL. Water is returned to the cages immediately following the challenge. Challenge is performed in a BL2 surgical suite.
Nu-8 (Test article) is prepared immediately before each dosing. Nu-8 is dissolved in sterile saline and adjusted to pH 3.5 with phosphoric acid. At 23 hours post-challenge, water is removed from animal cages. One hour later, mice are anesthetized using isoflurane and residual urine is expressed from the bladder. Mice are treated with test article or controls via transurethral dosing in a volume of 30 μL according to TABLE 9 (showing Animal Challenge and Treatment Schedule). All treatments are administered in a BSL2 surgical suite.
Immediately following treatment administration, the urethral opening is occluded using Locktite gel superglue. One drop of glue is placed at the urethral opening and the opening is held together for 5-10 seconds using tissue forceps to ensure the urethral opening is occluded and the adhesive is dry. Animals remained under anesthetic following urethral occlusion. […]

E. coli ATCC25922 = experiment: Urinary tract infection model in Sprague-Dawley rats, transurethral treatment (Example 12); assay type: in vivo; details: 60 min
Method: Female Sprague-Dawley rats (n=6/group) are intraurethrally infected with the pre determined inoculum size of E. coli. At the specified time following infection with (depending on the in vivo growth curve), the animals are anaesthetized (ketamine/xylazine) and treated by transurethral administration with neutral saline (group 1), saline pH 3.5 adjusted with phosphoric acid (group 2), test compound Nu-8 pH 3.5 at 103 and 207 mg/kg (groups 3 and 4, respectively). When adjusting pH, the volume of phosphoric acid added are monitored and the final concentration of the pH adjusted dose solution are subsequently determined. The goal is to have the final concentration after pH adjustment within 10% of the desired dose so the final concentration after pH adjustment are reported. Volume of administration will be 300 μL. TABLE 10 (Animal Challenge and Treatment Schedule) summarizes the study groups.
Two hours prior to each infection animals are water deprived. Each animal is infected twice with 24 hrs difference by transurethral administration of 300 μL of bacterial suspension under light ketamine and xylazine anaesthesia. Prior to infection, urine is evacuated by digital pressure, cannula is gently inserted into the bladder via urethra and 300 μL of bacterial suspension is inserted into the bladder. […]

Molecule `CCCCOP(=O)(O)OC[C@H]1O[C@@H](n2ccc(N)nc2=O)C[C@@H]1OP(=O)(O)OCCCC` [Nu-8, sodium ((2R,3S,5R)-5-(4-amino-2-oxopyrimidin-1(2H)-yl)-3-((butoxyoxidophosphor-yl)oxy)tetrahydrofuran-2-yl)methyl butyl phosphate] has an MIC (Escherichia coli) of 37.5 mg/mL, an MIC [1] of 4.69 to 18.8 mg/mL and an MIC [2] of 9.38 to 37.5 mg/mL. The MIC50 [2] was 18.8 mg/mL, the MIC90 [2] was 37.5 mg/mL and the MIC (E. coli) was 54 mg/mL. The MIC (P. aeruginosa) was 27 mg/mL, the “bacterial burden (bladder)” value ([3]; 205 mg/kg pH 3.5 transurethral) was 6.5 log 10 and the “bacterial burden (bladder)” value ([3]; 410 mg/kg pH 3.5 transurethral) was 5.0 log 10. The “average bladder CFU burden” value ([3]; 820 mg/kg pH 3.5 transurethral, 10 minutes post-treatment) was 6.3 log 10, the “bacterial burden (bladder)” value ([3]; 820 mg/kg pH 3.5 transurethral) was 5.4 log 10 and the “mean CFU per mL of bladder tissue (tissue plus urine)” value (E. coli ATCC25922; 103 mg/kg pH 3.5 transurethral) was 5.53 Log 10 CFUs/mL bladder tissue. For the same molecule, the “mean CFU per mL of bladder tissue (tissue plus urine)” value (E. coli ATCC25922; 207 mg/kg pH 3.5 transurethral) was 4.60 Log 10 CFUs/mL bladder tissue.
